Measured values as given in patent publication US12077503B2, “Substituted cyclic amides and their use as herbicides” (FMC CORPORATION, priority 2015, dated 2024).

Experiments:
Type in all cases: in vivo
rice (Oryza sativa) = experiment: Test C flooded paddy test; conditions: Flood; for Plant response rating (scale of 0 to 100), Rice: 0 is no effect, 100 is complete control
Outline: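 Plants grown to the 2-leaf stage in pots flooded to 3 cm above soil; compounds applied directly into the paddy water, depth held throughout. After 13 to 15 d in greenhouse, injury visually rated against untreated controls on a 0–100 scale (0 no effect, 100 complete control).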

[1] = system: nutsedge, yellow (yellow nutsedge, Cyperus esculentus); experiment: Test C preemergence; conditions: for Plant response rating, Nutsedge, Yellow: scale 0 to 100, 0 no effect, 100 complete control
Outline: (§1)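 Preemergence: sow in loam-sand soil and treat. Postemergence: grow in peat-moss/vermiculite medium to 2–18 cm (1–4 leaves) and spray. Compound in non-phytotoxic solvent with surfactant; keep in greenhouse 13–15 d; score visually against controls, 0 (none) to 100 (full control).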

[2] = system: crabgrass, large (large crabgrass, Digitaria sanguinalis); experiment: Test C preemergence; conditions: for Plant response rating, Crabgrass, Large: scale 0 to 100, 0 no effect, 100 complete control
Outline: as §1

[3] = system: pigweed (Amaranthus retroflexus); experiment: Test C preemergence; conditions: for Plant response rating, Pigweed: scale 0 to 100, 0 no effect, 100 complete control
Outline: as §1

[4] = system: Galium (catchweed bedstraw, Galium aparine); experiment: Test C preemergence; conditions: for Plant response rating, Galium: scale 0 to 100, 0 no effect, 100 complete control
Outline: as §1

corn (Zea mays) = experiment: Test C preemergence; conditions: for Plant response rating, Corn: scale 0 to 100, 0 no effect, 100 complete control
Outline: as §1

soybean (Glycine max) = experiment: Test C preemergence
Outline: as §1

[5] = system: johnsongrass (Sorghum halepense); experiment: Test C preemergence; conditions: for Plant response rating, Johnsongrass: scale 0 to 100, 0 no effect, 100 complete control
Outline: as §1

[6] = system: velvetleaf (Abutilon theophrasti); experiment: Test C preemergence; conditions: for Plant response rating, Velvetleaf: scale 0 to 100, 0 no effect, 100 complete control
Outline: as §1

[7] = system: blackgrass (Alopecurus myosuroides); experiment: Test C preemergence; conditions: for Plant response rating, Blackgrass: scale 0 to 100, 0 no effect, 100 complete control
Outline: as §1

[8] = system: lambsquarters (Chenopodium album); experiment: Test C preemergence; conditions: for Plant response rating, Lambsquarters: scale 0 to 100, 0 no effect, 100 complete control
Outline: as §1

[9] = system: barnyardgrass (Echinochloa crus-galli); experiment: Test C preemergence; conditions: for Plant response rating, Barnyardgrass: scale 0 to 100, 0 no effect, 100 complete control
Outline: as §1

[10] = system: oilseed rape (Brassica napus); experiment: Test C preemergence; conditions: for Plant response rating, Oilseed Rape: scale 0 to 100, 0 no effect, 100 complete control
Outline: as §1

[11] = system: ryegrass, Italian (Italian ryegrass, Lolium multiflorum); experiment: Test C preemergence; conditions: for Plant response rating, Ryegrass, Italian: scale 0 to 100, 0 no effect, 100 complete control
Outline: as §1

[12] = system: wheat (winter wheat, Triticum aestivum); experiment: Test C preemergence; conditions: for Plant response rating, Wheat: scale 0 to 100, 0 no effect, 100 complete control
Outline: as §1

[13] = system: ragweed (common ragweed, Ambrosia elatior); experiment: Test C preemergence; conditions: for Plant response rating, Ragweed: scale 0 to 100, 0 no effect, 100 complete control
Outline: as §1

[14] = system: morningglory (Ipomoea coccinea); experiment: Test C preemergence; conditions: for Plant response rating, Morningglory: scale 0 to 100, 0 no effect, 100 complete control
Outline: as §1

[15] = system: waterhemp (common waterhemp, Amaranthus rudis); experiment: Test C preemergence; conditions: for Plant response rating, Waterhemp: scale 0 to 100, 0 no effect, 100 complete control
Outline: as §1

[16] = 31 g ai/ha, 0 is no effect, 100 is complete control

## Cc1ccc(C2CN(C)C(=O)C2C(=O)Nc2ccccc2F)cc1F (stereo not shown) [Compound 465]
Rice (Oryza sativa); 16 g ai/ha, scale 0 to 100 (0 no effect, 100 complete control), 13 to 15 d
  Plant response rating, Rice: 0
Rice (Oryza sativa); 31 g ai/ha
  Plant response rating (scale of 0 to 100), Rice: 0
Rice (Oryza sativa); 62 g ai/ha
  Plant response rating (scale of 0 to 100), Rice: 0
Rice (Oryza sativa); 125 g ai/ha
  Plant response rating (scale of 0 to 100), Rice: 0
[1]; [16]
  Plant response rating (scale of 0 to 100), Nutsedge, Yellow: 0
[1]; 62 g ai/ha
  Plant response rating, Nutsedge, Yellow: 0
[1]; 125 g ai/ha
  Plant response rating, Nutsedge, Yellow: 0
[1]; 250 g ai/ha
  Plant response rating, Nutsedge, Yellow: 0
[2]; [16]
  Plant response rating (scale of 0 to 100), Crabgrass, Large: 100
[2]; 62 g ai/ha
  Plant response rating, Crabgrass, Large: 100
[2]; 125 g ai/ha
  Plant response rating, Crabgrass, Large: 100
[2]; 250 g ai/ha
  Plant response rating, Crabgrass, Large: 100
[3]; [16]
  Plant response rating (scale of 0 to 100), Pigweed: 10
[3]; 62 g ai/ha
  Plant response rating, Pigweed: 25
[3]; 125 g ai/ha
  Plant response rating, Pigweed: 60
[3]; 250 g ai/ha
  Plant response rating, Pigweed: 55
[4]; [16]
  Plant response rating (scale of 0 to 100), Galium: 80
[4]; 62 g ai/ha
  Plant response rating, Galium: 85
[4]; 125 g ai/ha
  Plant response rating, Galium: 90
[4]; 250 g ai/ha
  Plant response rating, Galium: 98
Corn (Zea mays); [16]
  Plant response rating (scale of 0 to 100), Corn: 40
Corn (Zea mays); 62 g ai/ha
  Plant response rating, Corn: 55
Corn (Zea mays); 125 g ai/ha
  Plant response rating, Corn: 65
Corn (Zea mays); 250 g ai/ha
  Plant response rating, Corn: 90
Soybean (Glycine max); [16]
  Plant response rating (scale of 0 to 100), Soybean: 5
Soybean (Glycine max); 250 g ai/ha, scale 0 to 100, 0 no effect, 100 complete control
  Plant response rating, Soybean: 15
[5]; [16]
  Plant response rating (scale of 0 to 100), Johnsongrass: 10
[5]; 62 g ai/ha
  Plant response rating, Johnsongrass: 65
[5]; 125 g ai/ha
  Plant response rating, Johnsongrass: 80
[5]; 250 g ai/ha
  Plant response rating, Johnsongrass: 85
[6]; [16]
  Plant response rating (scale of 0 to 100), Velvetleaf: 15
[6]; 62 g ai/ha
  Plant response rating, Velvetleaf: 5
[6]; 125 g ai/ha
  Plant response rating, Velvetleaf: 55
[6]; 250 g ai/ha
  Plant response rating, Velvetleaf: 65
[7]; [16]
  Plant response rating (scale of 0 to 100), Blackgrass: 20
[7]; 62 g ai/ha
  Plant response rating, Blackgrass: 50
[7]; 125 g ai/ha
  Plant response rating, Blackgrass: 80
[7]; 250 g ai/ha
  Plant response rating, Blackgrass: 90
[8]; [16]
  Plant response rating (scale of 0 to 100), Lambsquarters: 75
[8]; 62 g ai/ha
  Plant response rating, Lambsquarters: 75
[8]; 125 g ai/ha
  Plant response rating, Lambsquarters: 85
[8]; 250 g ai/ha
  Plant response rating, Lambsquarters: 100
[9]; [16]
  Plant response rating (scale of 0 to 100), Barnyardgrass: 90
[9]; 62 g ai/ha
  Plant response rating, Barnyardgrass: 95
[9]; 125 g ai/ha
  Plant response rating, Barnyardgrass: 98
[9]; 250 g ai/ha
  Plant response rating, Barnyardgrass: 100
[10]; [16]
  Plant response rating (scale of 0 to 100), Oilseed Rape: 30
[10]; 62 g ai/ha
  Plant response rating, Oilseed Rape: 10
[10]; 125 g ai/ha
  Plant response rating, Oilseed Rape: 85
[10]; 250 g ai/ha
  Plant response rating, Oilseed Rape: 90
[11]; [16]
  Plant response rating (scale of 0 to 100), Ryegrass, Italian: 10
[11]; 62 g ai/ha
  Plant response rating, Ryegrass, Italian: 70
[11]; 125 g ai/ha
  Plant response rating, Ryegrass, Italian: 65
[11]; 250 g ai/ha
  Plant response rating, Ryegrass, Italian: 65
[12]; [16]
  Plant response rating (scale of 0 to 100), Wheat: 20
[12]; 62 g ai/ha
  Plant response rating, Wheat: 70
[12]; 125 g ai/ha
  Plant response rating, Wheat: 80
[12]; 250 g ai/ha
  Plant response rating, Wheat: 95
[13]; [16]
  Plant response rating (scale of 0 to 100), Ragweed: 0
[13]; 62 g ai/ha
  Plant response rating, Ragweed: 60
[13]; 125 g ai/ha
  Plant response rating, Ragweed: 75
[13]; 250 g ai/ha
  Plant response rating, Ragweed: 80
[14]; [16]
  Plant response rating (scale of 0 to 100), Morningglory: 5
[14]; 62 g ai/ha
  Plant response rating, Morningglory: 20
[14]; 125 g ai/ha
  Plant response rating, Morningglory: 25
[14]; 250 g ai/ha
  Plant response rating, Morningglory: 50
[15]; [16]
  Plant response rating (scale of 0 to 100), Waterhemp: 60
[15]; 62 g ai/ha
  Plant response rating, Waterhemp: 70
[15]; 125 g ai/ha
  Plant response rating, Waterhemp: 80
[15]; 250 g ai/ha
  Plant response rating, Waterhemp: 80
